In patent publication US20230339919A1, “BENZO OXYGEN-CONTAINING HETEROCYCLIC COMPOUNDS AND MEDICAL APPLICATION THEREOF” (AB PHARMA LTD., priority 2020, published 2023):
Like-named read-outs stand apart in the source and are kept apart here.

Experiments:
GPR40 = biological target: T1, GPR40 (Homo sapiens, UniProt O14842); experiment: GPR40 agonist activity, FLIPR calcium assay in CHO-K1/GPR40 cells; assay type: cell-based
T1 construct: expressed in transfected cells; host or cells: CHO-K1
Experimental: Inoculate CHO-K1/GPR40 cells in 384-well plates at a density of 10,000 cells/well. Cells were incubated at 37° C. for 24 hours in a 5% CO2 incubator. After the experiment, discard the cell culture medium, quickly add […] of 1× FLIPR® Calcium 6 dye containing 2.5 mM/Probenecid to each well and incubate at 37° C. for 2 hours protected from light. For the determination, different concentrations of drug ([…]) were added to the wells and the fluorescence values were read. The fluorescence excitation wavelength was 494 nm and emission wavelength was 516 nm. FLIPR instrument data, EC50 was derived from the formula Y=Bottom+(Top−Bottom)/(1+(EC50/X)^HillSlope).

hERG = hERG (Homo sapiens, UniProt Q12809); experiment: hERG assay
Chain of hERG (Q12809 whole entry): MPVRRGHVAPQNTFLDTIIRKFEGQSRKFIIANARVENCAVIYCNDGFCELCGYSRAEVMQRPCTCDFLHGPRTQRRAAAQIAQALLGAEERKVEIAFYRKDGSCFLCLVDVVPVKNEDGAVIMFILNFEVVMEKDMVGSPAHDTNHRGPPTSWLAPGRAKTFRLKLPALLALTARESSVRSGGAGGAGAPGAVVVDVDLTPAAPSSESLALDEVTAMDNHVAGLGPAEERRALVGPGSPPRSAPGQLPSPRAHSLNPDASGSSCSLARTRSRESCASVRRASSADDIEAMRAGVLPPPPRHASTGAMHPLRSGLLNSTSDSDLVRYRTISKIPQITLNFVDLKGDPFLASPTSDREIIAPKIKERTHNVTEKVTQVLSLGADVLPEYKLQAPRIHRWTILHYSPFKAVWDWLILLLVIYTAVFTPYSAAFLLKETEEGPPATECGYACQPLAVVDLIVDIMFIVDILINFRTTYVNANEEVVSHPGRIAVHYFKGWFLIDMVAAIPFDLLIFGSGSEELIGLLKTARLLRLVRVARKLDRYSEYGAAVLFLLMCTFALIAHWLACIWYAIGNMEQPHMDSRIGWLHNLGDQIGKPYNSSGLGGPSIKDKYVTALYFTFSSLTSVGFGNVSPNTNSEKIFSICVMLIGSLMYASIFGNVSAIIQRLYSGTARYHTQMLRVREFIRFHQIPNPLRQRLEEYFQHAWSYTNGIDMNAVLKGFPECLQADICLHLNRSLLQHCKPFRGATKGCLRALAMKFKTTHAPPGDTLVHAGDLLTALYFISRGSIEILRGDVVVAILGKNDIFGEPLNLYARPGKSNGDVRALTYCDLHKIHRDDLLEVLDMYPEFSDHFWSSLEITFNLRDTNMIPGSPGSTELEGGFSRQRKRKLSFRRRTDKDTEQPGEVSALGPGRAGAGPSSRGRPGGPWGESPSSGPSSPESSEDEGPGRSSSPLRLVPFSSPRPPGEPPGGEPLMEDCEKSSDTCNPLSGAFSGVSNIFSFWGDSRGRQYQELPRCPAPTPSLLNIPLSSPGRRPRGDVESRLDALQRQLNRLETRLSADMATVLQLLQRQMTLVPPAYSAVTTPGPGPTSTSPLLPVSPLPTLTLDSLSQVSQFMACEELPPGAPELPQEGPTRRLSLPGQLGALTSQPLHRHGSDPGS

[1] = biological target: BSEP bile salt transporter (Homo sapiens, UniProt O95342); experiment: BSEP (Bile Salt Export Pump) assay, taurocholic acid uptake by BSEP vesicles, LC/MS/MS; assay type: in vitro ADME
Chain of BSEP bile salt transporter (O95342 whole entry): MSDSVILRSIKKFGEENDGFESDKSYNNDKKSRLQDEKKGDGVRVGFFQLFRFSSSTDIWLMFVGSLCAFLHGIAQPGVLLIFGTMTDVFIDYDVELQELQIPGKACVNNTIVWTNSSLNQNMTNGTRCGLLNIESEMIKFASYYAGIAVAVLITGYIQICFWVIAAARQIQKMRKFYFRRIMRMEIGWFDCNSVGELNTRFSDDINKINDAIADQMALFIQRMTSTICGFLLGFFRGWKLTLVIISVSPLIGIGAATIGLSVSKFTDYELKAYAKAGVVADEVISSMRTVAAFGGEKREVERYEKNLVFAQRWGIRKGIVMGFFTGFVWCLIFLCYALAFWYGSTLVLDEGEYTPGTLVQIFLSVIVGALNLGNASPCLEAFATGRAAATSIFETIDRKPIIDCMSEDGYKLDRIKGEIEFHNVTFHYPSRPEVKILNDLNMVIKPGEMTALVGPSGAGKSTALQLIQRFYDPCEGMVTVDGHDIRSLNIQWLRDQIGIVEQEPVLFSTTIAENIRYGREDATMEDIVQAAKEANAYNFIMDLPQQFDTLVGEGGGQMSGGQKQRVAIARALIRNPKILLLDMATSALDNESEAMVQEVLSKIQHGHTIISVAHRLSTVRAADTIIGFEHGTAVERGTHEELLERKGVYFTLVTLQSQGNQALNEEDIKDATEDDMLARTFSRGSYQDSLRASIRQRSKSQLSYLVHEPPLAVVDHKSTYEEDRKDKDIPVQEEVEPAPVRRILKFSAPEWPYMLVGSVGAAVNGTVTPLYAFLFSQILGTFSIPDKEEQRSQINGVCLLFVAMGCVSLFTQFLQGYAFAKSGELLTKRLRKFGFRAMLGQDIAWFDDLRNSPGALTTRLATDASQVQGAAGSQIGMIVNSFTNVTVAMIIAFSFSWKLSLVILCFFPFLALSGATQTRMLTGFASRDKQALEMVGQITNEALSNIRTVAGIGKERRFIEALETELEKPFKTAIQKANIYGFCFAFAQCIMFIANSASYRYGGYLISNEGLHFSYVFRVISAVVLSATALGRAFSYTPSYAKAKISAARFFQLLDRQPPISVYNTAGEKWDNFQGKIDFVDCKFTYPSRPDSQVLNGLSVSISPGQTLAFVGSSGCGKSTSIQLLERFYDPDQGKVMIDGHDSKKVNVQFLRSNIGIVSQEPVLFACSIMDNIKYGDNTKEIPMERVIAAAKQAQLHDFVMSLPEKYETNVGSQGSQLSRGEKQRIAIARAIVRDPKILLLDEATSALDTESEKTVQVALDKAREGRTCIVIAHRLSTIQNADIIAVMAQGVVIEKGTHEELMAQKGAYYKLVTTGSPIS
Text: In this experiment, we performed a preliminary study on the inhibition of the uptake of the substrate taurocholic acid (TCA) by the BSEP bile salt transporter by LC/MS/MS. The BSEP protein microvesicles with reverse uptake ability were obtained by transfecting Hi5 cells with the BSEP gene, which is capable of TCA uptake and uptake of taurocholic acid. The principle of this experiment is to perform substrate uptake by BSEP protein microcapsules in the presence of energy ATP, the substrate TCA and the candidate compound to be tested, after a certain transit time, the energy, substrate and candidate compound were completely washed out of the microvesicle, and the absorbed substrate TCA was released by lysis of the microvesicle. […] The starting concentration of the sample was 100 mM, diluted in 2-fold gradient with Bravo apparatus, with 11 concentration gradients; the lowest point concentration was 97.65 μM. • 3. Control compound (Glyburide) starting at 20 mM, diluted in 2-fold gradient with Bravo instrument, with 11 concentration gradients; the lowest point concentration was 19.53 μM. • 4. 300 nl of compound was transferred to the middle plate using the ECHO autosampler. • 5. Positive control (HPE) wells and negative control (ZPE) wells were also transferred 300 nl DMSO each. […] Add 14.7 μl of ATP buffer to the corresponding wells of the compound and ZPE, respectively. • 2. Add 14.7 μl of AMP buffer to the corresponding wells of the HPE. • 3. Shake the plate at 25 degrees C. for 10 minutes. • 4. […] Immediately add 5 ul of 0.5M EDTA solution to all wells, and then add 65 μl of Buffer B. All reactions are completed. • 6. Transfer […] of liquid from the end of reaction compound plate to the filter plate using the spiking apparatus. • 7. After placing the liquid receiving plate under the filter plate, use a centrifuge to remove the liquid and discard the liquid received in the receiving plate. • 8. Add 90 μl of buffer B to the filter plate and repeat step 7. Repeat steps 7 and 8 to wash the filter plate a total of three times. • 9. Let the filter plate dry overnight. • 10. Add 81 μl of 80% methanol/water solution to the filter plate the next day. • 11. Apply membrane to the filter plate and vibrate the plate for 15 minutes. • 12. Place a new liquid receiver plate under the filter plate and centrifuge for 5 min to filter all the liquid from the filter plate into the receiver plate. • 13. Add 13.5 μl of internal standard solution to each well of the liquid receiver plate and seal the plate with a sealing film. • 14. Using LC/MS/MS, detect the content of taurocholic acid in the receiver plate.

[2] = Acute Toxicity Study (MTD) by gavage in healthy mice; assay type: in vivo; details: mouse, in vivo, po, 600 mg/kg
healthy mice = experiment: as above; assay type: in vivo; details: mouse, in vivo, 600 mg/kg, 5 days
[3] = GPR40 agonist activity range (EC50), CHO-K1/GPR40 cells, read-out: GPR40 activity
[4] = inhibition of TCA uptake by BSEP vesicles, read-out: Potential inhibitory side effects BSEP (IC50)
[5] = Table 4, read-out: GPR40 Activity (hEC50)
[6] = read-out: GPR40 activity (EC50)

T1 sequence (O14842 whole entry): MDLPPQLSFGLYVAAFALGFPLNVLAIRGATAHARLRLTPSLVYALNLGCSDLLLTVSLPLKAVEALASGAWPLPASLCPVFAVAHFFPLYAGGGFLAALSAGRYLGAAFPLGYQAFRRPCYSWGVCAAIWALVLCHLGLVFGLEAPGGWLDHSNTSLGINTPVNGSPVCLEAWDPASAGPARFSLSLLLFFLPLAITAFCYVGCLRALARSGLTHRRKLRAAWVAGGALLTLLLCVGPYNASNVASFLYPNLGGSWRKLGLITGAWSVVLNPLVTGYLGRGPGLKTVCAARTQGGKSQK

EC50 (GPR40; [3]) [nM]	SMILES	further results
10 to 100	O=C(O)CC1COc2cc(OCc3ccc4c(c3)OCO4)ccc21 (stereo not shown) [IIb-04]	–
10 to 100	O=C(O)CC1COc2cc(OCc3cc(F)cc4c3OCO4)ccc21 (stereo not shown) [IIb-06]	–
> 100	O=C(O)CC1COc2cc(OCc3c(Br)ccc4c3OCCO4)ccc21 (stereo not shown) [IIb-08]	–
> 100	O=C(O)CC1COc2cc(OCc3cc(Br)cc4c3OCCO4)ccc21 (stereo not shown) [IIb-09]	–
> 100	O=C(O)CC1COc2cc(OCc3cc(F)cc4c3OCCO4)ccc21 (stereo not shown) [IIb-11]	–
> 100	O=C(O)CC1COc2cc(OCc3ccc(F)c4c3OCO4)ccc21 (stereo not shown) [IIb-12]	–
10 to 100	O=C(O)CC1COc2cc(OCc3cc(C(F)(F)F)cc4c3OCO4)ccc21 (stereo not shown) [IIb-14]	–
> 100	O=C(O)CC1COc2cc(OCc3cccc4c3OCCO4)ccc21 (stereo not shown) [IIb-19]	–
10 to 100	CC1(C)Oc2cccc(COc3ccc4c(c3)OCC4CC(=O)O)c2O1 (stereo not shown) [IIb-20]	–
> 100	CC1(C)Oc2cc(Br)cc(COc3ccc4c(c3)OCC4CC(=O)O)c2O1 (stereo not shown) [IIb-22]	–
10 to 100	O=C(O)CC1COc2cc(OCc3cc(Cl)cc4c3OC(F)(F)O4)ccc21 (stereo not shown) [IIb-23]	–
> 100	O=C(O)CC1COc2c1cc(Br)c(OCc1cccc3c1OC(F)(F)O3)c2Br (stereo not shown) [IIb-27]	–
> 100	O=C(O)CC1COc2cc(OCc3cccc4c3OC(F)(F)O4)c(Cl)cc21 (stereo not shown) [IIb-28]	–
> 100	O=C(O)CC1COc2cc(OCc3cccc4c3OC(F)(F)O4)c(F)cc21 (stereo not shown) [IIb-29]	–
> 100	NC(C(=O)O)C1COc2cc(OCc3cccc4c3OC(F)(F)O4)ccc21 (stereo not shown) [IIb-31]	–
> 100	O=C(O)C(O)C1COc2cc(OCc3cccc4c3OC(F)(F)O4)ccc21 (stereo not shown) [IIb-32]	–
10 to 100	O=C(O)C(F)C1COc2cc(OCc3cccc4c3OC(F)(F)O4)ccc21 (stereo not shown) [IIb-33]	–

EC50 (GPR40; [3]) [nM]	SMILES	further results
> 100	CC(C)(CC(=O)O)c1ccc(OCc2cc(F)cc3c2OCO3)cc1 [IIb-36]	–
10 to 100	Cc1cc(OCCCS(C)(=O)=O)cc(C)c1-c1cc(COc2ccc3c(c2)OC[C@H]3CC(=O)O)c2c(c1)OCO2 [IIb-38]	–
> 100	O=C(O)C(F)(F)C1COc2cc(OCc3cc(Cl)cc4c3OCO4)ccc21 (stereo not shown) [IIb-39]	–
> 100	Nc1cc(COc2ccc3c(c2)OC[C@H]3CC(=O)O)c2c(c1)OCO2 [IIb-44]	–
> 100	COc1cc(COc2ccc3c(c2)OC[C@H]3CC(=O)O)c2c(c1)OCO2 [IIb-45]	–
< 10	CC(C)(C)OC(=O)Nc1cc(COc2ccc3c(c2)OC[C@H]3CC(=O)O)c2c(c1)OC(F)(F)O2 [IIb-46]	EC50 (GPR40; [6]): < 10 nM
> 100	COC(=O)Nc1cc(COc2ccc3c(c2)OC[C@H]3CC(=O)O)c2c(c1)OCO2 [IIb-47]	–
> 100	CC(C)(C)NC(=O)Nc1cc(COc2ccc3c(c2)OC[C@H]3CC(=O)O)c2c(c1)OCO2 [IIb-49]	–
> 100	CC(C)S(=O)(=O)Nc1cc(COc2ccc3c(c2)OC[C@H]3CC(=O)O)c2c(c1)OCO2 [IIb-51]	–
10 to 100	O=C(O)C[C@@H]1COc2cc(OCc3cc(C(F)(F)F)cc4c3OCO4)ccc21 [IIb-53]	–
10 to 100	O=C(O)C[C@@H]1COc2cc(OCc3cc(C(F)(F)F)cc4c3OC(F)(F)O4)ccc21 [IIb-54]	–
10 to 100	O=C(O)C[C@@H]1COc2cc(OCc3cc(F)cc4c3OC(F)(F)O4)ccc21 [IIb-55]	–
10 to 100	O=C(O)C[C@@H]1COc2cc(OCc3cc(Cl)cc4c3OC(F)(F)O4)ccc21 [IIb-56]	–
10 to 100	O=C(O)C(F)C1COc2cc(OCc3cc(Cl)cc4c3OCO4)ccc21 (stereo not shown) [IIb-58]	–
10 to 100	CC#CC(CC(=O)O)c1ccc(OCc2cccc3c2OC(F)(F)O3)cc1 (stereo not shown) [IIb-62]	–
10 to 100	CC#CC(CC(=O)O)c1ccc(OCc2cc(NC(=O)OC(C)(C)C)cc3c2OC(F)(F)O3)cc1 (stereo not shown) [IIb-64]	–

Further lines, the compound ahead of its results:

SMILES	EC50 (GPR40; [3]) [nM]	further results
O=C(O)CC1COc2cc(OCc3cccc4c3OCO4)ccc21 (stereo not shown) [IIb-01]	> 100	–
O=C(O)CC1COc2cc(OCc3cc(Br)cc4c3OCO4)ccc21 (stereo not shown) [IIb-02]	> 100	–
O=C(O)CC1COc2cc(OCc3c(Br)ccc4c3OCO4)ccc21 (stereo not shown) [IIb-03]	> 100	–
O=C(O)CC1COc2cc(OCc3cc(Cl)cc4c3OCO4)ccc21 (stereo not shown) [IIb-05]	10 to 100	–
O=C(O)C[C@@H]1COc2cc(OCc3cc(F)cc4c3OCO4)ccc21 [IIb-07]	10 to 100	–
O=C(O)CC1COc2cc(OCc3cc(Cl)cc4c3OCCO4)ccc21 (stereo not shown) [IIb-10]	> 100	–
O=C(O)CC1COc2cc(OCc3c(F)ccc4c3OCO4)ccc21 (stereo not shown) [IIb-13]	> 100	–
N#Cc1cc(COc2ccc3c(c2)OCC3CC(=O)O)c2c(c1)OCO2 (stereo not shown) [IIb-15]	10 to 100	–
O=C(O)CC1COc2cc(OCc3ccc(Br)c4c3OCO4)ccc21 (stereo not shown) [IIb-16]	> 100	–
O=C(O)CC1COc2cc(OCc3cccc4c3OC(F)(F)O4)ccc21 (stereo not shown) [IIb-17]	10 to 100	–
O=C(O)C[C@@H]1COc2cc(OCc3cccc4c3OC(F)(F)O4)ccc21 [IIb-18]	< 10	IC50 (hERG): > 30000 nM; IC50 [1, 4]: 162000 nM; IC50 ([1]; read-out: BSEP): > 25000 nM; Ames assay result (Ames assay): no relevant side effects; LD50 at 5 days [2]: > 600 mg/kg; survival rate of the mice after administration (healthy mice): 100%; EC50 (GPR40; [5]): 7.9 nM; EC50 (GPR40; [6]): < 10 nM
O=C(O)CC1COc2cc(OCc3cc(Br)cc4c3OC(F)(F)O4)ccc21 (stereo not shown) [IIb-21]	10 to 100	–
O=C(O)CC1COc2cc(OCc3ccc(Cl)c4c3OC(F)(F)O4)ccc21 (stereo not shown) [IIb-24]	> 100	–
O=C(O)C[C@@H]1COc2cc(OCc3cc(Cl)cc4c3OCO4)ccc21 [IIb-25]	< 10	IC50 (hERG): > 30000 nM; IC50 [1, 4]: 57700 nM; IC50 ([1]; read-out: BSEP): > 25000 nM; Ames assay result (Ames assay): no relevant side effects; LD50 at 5 days [2]: > 600 mg/kg; survival rate of the mice after administration (healthy mice): 100%; EC50 (GPR40; [5]): 9.2 nM; EC50 (GPR40; [6]): < 10 nM
O=C(O)CC1COc2cc(OCc3cccc4c3OC(F)(F)O4)c(Br)cc21 (stereo not shown) [IIb-26]	> 100	–
O=C(O)C(Br)C1COc2cc(OCc3cccc4c3OC(F)(F)O4)ccc21 (stereo not shown) [IIb-30]	> 100	–
O=C(O)C(F)(F)C1COc2cc(OCc3cccc4c3OC(F)(F)O4)ccc21 (stereo not shown) [IIb-34]	> 100	–
O=C(O)CC1CCc2cc(OCc3cc(F)cc4c3OCO4)ccc21 (stereo not shown) [IIb-35]	10 to 100	–
O=C(O)CC1(c2ccc(OCc3cc(F)cc4c3OCO4)cc2)OCCO1 [IIb-37]	> 100	–
O=C(O)C[C@@H]1COc2cc(OCc3cc(I)cc4c3OCO4)ccc21 [IIb-40]	10 to 100	–
CN(C)c1cc(COc2ccc3c(c2)OC[C@H]3CC(=O)O)c2c(c1)OCO2 [IIb-41]	> 100	–
CN(C)c1ccc2c(c1COc1ccc3c(c1)OC[C@H]3CC(=O)O)OCO2 [IIb-42]	> 100	–
O=C(O)C[C@@H]1COc2cc(OCc3cc(NC(=O)OC4CCCC4)cc4c3OCO4)ccc21 [IIb-48]	10 to 100	–
CC(C)(C)C(=O)Nc1cc(COc2ccc3c(c2)OC[C@H]3CC(=O)O)c2c(c1)OCO2 [IIb-50]	> 100	–
O=C(O)C[C@@H]1COc2cc(OCc3cc(OC(F)(F)F)cc4c3OCO4)ccc21 [IIb-52]	> 100	–
O=C(O)C(F)C1COc2cc(OCc3cc(F)cc4c3OCO4)ccc21 (stereo not shown) [IIb-57]	10 to 100	–
CC(C)(C)OC(=O)Nc1cc(COc2ccc3c(c2)OCC3C(F)C(=O)O)c2c(c1)OCO2 (stereo not shown) [IIb-59]	10 to 100	–
O=C(O)CC1CCc2cc(OCc3cccc4c3OC(F)(F)O4)ccc21 (stereo not shown) [IIb-61]	10 to 100	–
CC(C)(C)OC(=O)Nc1cc(COc2ccc3c(c2)CCC3CC(=O)O)c2c(c1)OC(F)(F)O2 (stereo not shown) [IIb-63]	10 to 100	–
